Data as given in paper PMC12175177 (Frontiers in Pharmacology, 2025).
In brackets after ≈: the same amount, converted by molar mass. Counter-ions that a name gives are not always drawn. Like-named read-outs stand apart in the source and are kept apart here.

Tests used:
Type in all cases: cell-based
[1] = tested on: SARS-CoV-2 A2.5 variant (M2169); conditions: for % inhibition Vero E6 A2.5 MOI 0.01: at MNCC, 48 h, 1x
[2] = tested on: SARS-CoV-2 A2.5 variant (M2169); conditions: at MNCC; […]; 48 h; mean 2x
[3] = tested on: SARS-CoV-2 Delta variant (SEQ203); conditions: for % inhibition Vero E6 Delta MOI 0.0001 / % inhibition Vero E6 Delta MOI 0.01: at MNCC, 48 h; for % inhibition Vero E6 Delta MOI 0.0001: 1x; for % inhibition Vero E6 Delta MOI 0.01: mean 2x
[4] = tested on: SARS-CoV-2 Delta variant (SEQ203); conditions: at MNCC, 48 h, 1x
SARS-CoV-2 A2.5 variant = experiment: microbe, parasite or virus in culture
[5] = Severe acute respiratory syndrome coronavirus 2, Vero C1008, 72 h, read-out: IC50%
[6] = Severe acute respiratory syndrome coronavirus 2, Vero C1008, 72 h, read-out: IC50% in µg/mL
[7] = Severe acute respiratory syndrome coronavirus 2, Vero C1008, read-out: IC90%
[8] = Severe acute respiratory syndrome coronavirus 2, Vero C1008, read-out: IC90% in µg/mL

Compound	% inhibition Vero E6 A2.5 MOI 0.01 [1]	% inhibition Calu-3 A2.5 MOI 0.01 [2]	antiviral inhibition at MOI = 0.00001 [3]	% inhibition Vero E6 Delta MOI 0.0001 [3]	% inhibition Vero E6 Delta MOI 0.01 [3]	% inhibition Calu-3 Delta MOI 0.01 [4]	other results
CCN(CC)Cc1cc(Nc2ccnc3cc(Cl)ccc23)ccc1O [Amodiaquine (AQ), Amodiaquine]	showed activity	showed activity	≥ 20%	42%	11%		
CCO[C@H]1O[C@@H]2O[C@@]3(C)CC[C@H]4[C@H](C)CC[C@@H]([C@H]1C)[C@@]24OO3 [Arteether (AE), Arteether]	10%	showed activity	≥ 20%	23%	8%	5%	
C[C@H]1[C@@H](OCc2ccc(C(=O)O)cc2)O[C@@H]2O[C@@]3(C)CC[C@H]4[C@H](C)CC[C@@H]1[C@@]24OO3 [Artelinic Acid (AA), Artelinic Acid]	0%	14%		0%	5%	7%	
C[C@H]1[C@H](N2CCS(=O)(=O)CC2)O[C@@H]2O[C@@]3(C)CC[C@H]4[C@H](C)CC[C@@H]1[C@@]24OO3 [Artemisone (ASO), Artemisone]	showed activity			15%	10%	16%	
C[C@H]1[C@H](OC(=O)CCC(=O)O)O[C@@H]2O[C@@]3(C)CC[C@H]4[C@H](C)CC[C@@H]1[C@@]24OO3 [Artesunate injection (ASi), Artesunate]	0%	10%	≥ 20%	41%			less potent against the Delta compared to the A2.5 variant [3]: 20%; IC50 (SARS-CoV-2 A2.5 variant; [5]): 28.7 µM; IC50 (SARS-CoV-2 A2.5 variant; [6]): 11 µg/mL; IC90 (SARS-CoV-2 A2.5 variant; [7]): 258 µM; IC90 (SARS-CoV-2 A2.5 variant; [8]): 99.3 µg/mL
C[C@H]1[C@H](OC(=O)CCC(=O)O)O[C@@H]2O[C@@]3(C)CC[C@H]4[C@H](C)CC[C@@H]1[C@@]24OO3 [Artesunic acid (AS), Artesunic acid]	45%			37%	18%	42%	% inhibition Calu-3 Delta MOI 0.01 ([4]; listed as AS): effective
CC[C@H]1OC(=O)[C@H](C)[C@@H](O[C@H]2C[C@@](C)(OC)[C@@H](O)[C@H](C)O2)[C@H](C)[C@@H](O[C@@H]2O[C@H](C)C[C@H](N(C)C)[C@H]2O)[C@](C)(O)C[C@@H](C)CN(C)[C@H](C)[C@@H](O)[C@]1(C)O [Azithromycin dehydrate (AZH), Azithromycin dehydrate]	0%	19%	≥ 20%	25%	8%	2%	
CN(C)C(=O)COC(=O)Cc1ccc(OC(=O)c2ccc(NC(=N)N)cc2)cc1 [Camostat mesylate (CAM), Camostat mesylate]	2%	16%		0%	7%	4%	
CCN(CCO)CCCC(C)Nc1ccnc2cc(Cl)ccc12 (centres unmarked) [Hydroxychloroquine Minsa (HCQ-m), Hydroxychloroquine]	0%			43%	18%		
CCN(CCO)CCCC(C)Nc1ccnc2cc(Cl)ccc12 (centres unmarked) [Hydroxychloroquine sulfate (HCQ), Hydroxychloroquine sulfate]	29%	16%		43%	10%	9%	times more potent against A2.5 than Delta ([1]; Vero-E6): 1.8 times; % inhibition Calu-3 Delta MOI 0.01 ([4]; listed as HCQ): effective; less potent against the Delta compared to the A2.5 variant [3]: 40%; IC50 (SARS-CoV-2 A2.5 variant; [5]): 12.6 µM; IC50 (SARS-CoV-2 A2.5 variant; [6]): 5.8 µg/mL; IC50 (SARS-CoV-2 A2.5 variant; Severe acute respiratory syndrome coronavirus 2, Vero C1008, read-out: IC50 (Figure 4 curve)): 13.3 µM; IC90 (SARS-CoV-2 A2.5 variant; [7]): 113 µM; IC90 (SARS-CoV-2 A2.5 variant; [8]): 38.1 µg/mL
O=C(Nc1cccc(C2=NCCN2)c1)Nc1cccc(C2=NCCN2)c1 [Imidocarb (IMI), Imidocarb]		14%		0%	11%	16%	
CC[C@H](C)[C@H]1O[C@]2(CC[C@@H]1C)C[C@@H]1C[C@@H](C/C=C(\C)[C@@H](O[C@H]3C[C@H](OC)[C@@H](O[C@H]4C[C@H](OC)[C@@H](O)[C@H](C)O4)[C@H](C)O3)[C@@H](C)/C=C/C=C3\CO[C@@H]4[C@H](O)C(C)=C[C@@H](C(=O)O1)[C@]34O)O2 [Ivermectin (IVM), Ivermectin]	5%	15%		19%	11%	17%	IC50% (SARS-CoV-2 A2.5 variant): 63.6 µg/mL (≈ 72.7 µM); IC50 (SARS-CoV-2 A2.5 variant; read-out: IC50%): 72.7 µM
CCCCN(CCCC)CC(O)c1cc(Cl)cc2c1-c1ccc(Cl)cc1/C2=C/c1ccc(Cl)cc1 (centres unmarked) [Lumefantrine (LUM), Lumefantrine]		19%		0%	14%		
OC(c1cc(C(F)(F)F)nc2c(C(F)(F)F)cccc12)C1CCCCN1 (centres unmarked) [Mefloquine (MQ), Mefloquine]	16%	8%	≥ 20%	45%	6%	0%	
CN(C)c1ccc2nc3ccc(=[N+](C)C)cc-3sc2c1 [Methylene Blue Injection (MBi), Methylene Blue]	2%	18%		16%	10%		
COc1c(C)c2c(c(O)c1C/C=C(\C)CCC(=O)O)C(=O)OC2 [Mycophenolic acid (MYC), Mycophenolic acid]	0%	11%	≥ 20%	40%	7%	5%	
CN1CCN(CCCN2c3ccccc3Sc3ccc(Cl)cc32)CC1 [Prochlorperazine (PCPZ), Prochlorperazine]	0%	16%		6%	6%	0%	
COc1ccc2nc3cc(Cl)ccc3c(Nc3cc(CN4CCCC4)c(O)c(CN4CCCC4)c3)c2n1 [Pyranoridine (PNO), Pyranoridine]	0%	1%	≥ 20%	43%	6%	-1%	
CCc1nc(N)nc(N)c1-c1ccc(Cl)cc1 [Pyrimethamina (PYR), Pyrimethamina]	0%	0%	≥ 20%	34%	9%	3%	
C=C[C@H]1C[N@@]2CC[C@H]1C[C@H]2[C@H](O)c1ccnc2ccc(OC)cc12 [Quinine Sulfate (QN), Quinine Sulfate]	18%	0%		0%	9%		
NC(=O)c1ncn([C@@H]2O[C@H](CO)[C@@H](O)[C@H]2O)n1 [Ribavirin (RIB), Ribavirin]	9%	11%	≥ 20%	44%	8%	-6%	
COc1cc(C)c2c(Oc3cccc(C(F)(F)F)c3)c(OC)cc(NC(C)CCCN)c2n1 (centres unmarked) [TQ, tafenoquine]							viral inhibition, secondary screening, Delta [3]: at least 20%
Ferroquine [Ferroquine (FQ)]	12%			23%	7%	4%	
Ivermectin [Ivermectin Farmacia (IVM-f)]		16%	≥ 20%	44%	5%	5%	
Ivermectin [Ivermectin Liquida (IVM-li)]	52%			0%	15%	45%	% inhibition Vero E6 A2.5 MOI 0.01 ([1]; listed as IVM-li): ≥ 20%; % inhibition Calu-3 Delta MOI 0.01 ([4]; listed as IVM-l): ≥ 20%
